Patent US9023851B2 (Merck Patent GmbH, priority 2010, dated 2015)

Tests used:
Format in all cases: biochemical
Syk = target: T1, Syk (Homo sapiens, UniProt P43405); assay: Syk enzyme assay (flash plate / Caliper mobility shift)
T1 construct: purchased BPS Bioscience, CA, USA
Method: The kinase assay is performed either as 384-well Flashplate assay (for e.g. Topcount measurement) or as 384-well Image-Flashplate assay (for LEADseeker measurement).
2.5 nM SYK, 400 nM Biotin-Aha-Aha-[…] and 10 μM ATP (spiked with 0.3 μCi 33P-ATP/well) are incubated in a total volume of 50 μl (60 mM Hepes, 10 mM MgCl2, 1.2 mM Dithiothreitol, 0.02% Brij35, 0.1% BSA, pH 7.5) with or without test compound for 1 hours at 30° C. The reaction is stopped with 25 μl 200 mM EDTA. After 30 Min at 30° C. the liquid is removed and each well washed thrice with 100 μl 0.9% sodium chloride solution. Non-specific reaction is determined in presence of 0.1 μM Staurosporine. Radioactivity is measured with Topcount (when using Flashplates) or with LEADseeker (when using Image-Flashplates) respectively. Results (e.g. IC50-values) are calculated with program tools provided by the IT-department (e.g. Symyx Assay Explorer, Genedata Screener).
(§1) Enzymatic Assays Using the Caliper LifeSciences Technology
(§2) The assays described here are performed on the Caliper Life Sciences LC3000 system This technology provides data on enzyme activity via measurement of the relative amounts of phosphorylated or unphosphorylated fluorescently labelled substrate peptide at the end of an enzymatic reaction. These different states of peptide are resolved by applying a potential difference across the sample. The presence of the charged phosphate group on the product (as opposed to the substrate) causes a different peptide mobility between the two peptides. This is visualized by excitation of the fluorescent label on the substrate and product peptides and represented as peaks within the analysis software.
(§3) In order to measure inhibitor activity of kinase inhibitors on this technology, a TTP Mosquito liquid handling instrument is used to place 0.25 ul of the appropriate concentration of inhibitor in 100% DMSO (for a dose response curve calculation) into each well of a 384-well plate. To this reaction components are added to a final volume of 25 ul. The table below indicates the sequences and concentrations for the assays described in this report. Standard components are 1 mM DTT (Sigma, D0632), 1 mM MgCl2 (Sigma, M1028), 100 mM HEPES pH 7.5 (Calbiochem, 391338), 0.015% Brij-35 (Sigma, B4184).
(§4) The reaction is incubated for 90 min at 25 C, and then stopped by the addition of 70 ul of Stop buffer (100 mM HEPES pH 7.5, 0.015% Brij-35, 10 mM EDTA (Sigma, E7889)).
(§5) The plate is read on a Caliper LC 3000 in an Off-Chip mobility shift assay format, on a 12-sipper chip. Unphosphorylated substrate and phosphorylated product peptide resolve as separate peaks allowing direct measurement of percentage of conversion of substrate to product. The percent conversion can be plotted against concentration of inhibitor to produce a sigmoidal dose response curve, from which an IC50 can be calculated using GeneData Condoseo or a similar product. Cellular activity assays

ZAP-70 = target: T2, ZAP-70 (Homo sapiens, UniProt P43403); assay: Zap70 enzymatic assay (Caliper LifeSciences technology)
T2 construct: purchased BPS Bioscience, CA, USA
T2 sequence (P43403 1-619): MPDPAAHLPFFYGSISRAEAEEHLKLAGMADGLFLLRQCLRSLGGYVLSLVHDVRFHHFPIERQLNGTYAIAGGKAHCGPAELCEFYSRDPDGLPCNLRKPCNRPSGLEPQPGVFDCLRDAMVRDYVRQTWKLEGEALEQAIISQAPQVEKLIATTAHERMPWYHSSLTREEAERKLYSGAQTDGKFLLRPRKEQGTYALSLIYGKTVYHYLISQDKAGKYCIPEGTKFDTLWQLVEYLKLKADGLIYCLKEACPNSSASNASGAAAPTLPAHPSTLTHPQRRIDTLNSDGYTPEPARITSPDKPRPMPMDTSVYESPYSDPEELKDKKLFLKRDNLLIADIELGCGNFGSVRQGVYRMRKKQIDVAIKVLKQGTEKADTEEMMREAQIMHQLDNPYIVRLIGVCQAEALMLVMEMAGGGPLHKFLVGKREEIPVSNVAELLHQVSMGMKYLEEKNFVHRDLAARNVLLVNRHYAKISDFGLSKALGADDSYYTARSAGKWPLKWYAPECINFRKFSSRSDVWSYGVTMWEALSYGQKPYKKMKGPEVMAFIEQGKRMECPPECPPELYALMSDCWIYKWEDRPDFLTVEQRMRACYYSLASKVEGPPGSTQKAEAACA
Method: as §1, §2, §3, §4, §5

KDR = target: T3, KDR (Homo sapiens, UniProt P35968); assay: KDR enzymatic assay (Caliper LifeSciences technology)
T3 construct: purchased BPS Bioscience, CA, USA
T3 sequence (P35968 20-1356): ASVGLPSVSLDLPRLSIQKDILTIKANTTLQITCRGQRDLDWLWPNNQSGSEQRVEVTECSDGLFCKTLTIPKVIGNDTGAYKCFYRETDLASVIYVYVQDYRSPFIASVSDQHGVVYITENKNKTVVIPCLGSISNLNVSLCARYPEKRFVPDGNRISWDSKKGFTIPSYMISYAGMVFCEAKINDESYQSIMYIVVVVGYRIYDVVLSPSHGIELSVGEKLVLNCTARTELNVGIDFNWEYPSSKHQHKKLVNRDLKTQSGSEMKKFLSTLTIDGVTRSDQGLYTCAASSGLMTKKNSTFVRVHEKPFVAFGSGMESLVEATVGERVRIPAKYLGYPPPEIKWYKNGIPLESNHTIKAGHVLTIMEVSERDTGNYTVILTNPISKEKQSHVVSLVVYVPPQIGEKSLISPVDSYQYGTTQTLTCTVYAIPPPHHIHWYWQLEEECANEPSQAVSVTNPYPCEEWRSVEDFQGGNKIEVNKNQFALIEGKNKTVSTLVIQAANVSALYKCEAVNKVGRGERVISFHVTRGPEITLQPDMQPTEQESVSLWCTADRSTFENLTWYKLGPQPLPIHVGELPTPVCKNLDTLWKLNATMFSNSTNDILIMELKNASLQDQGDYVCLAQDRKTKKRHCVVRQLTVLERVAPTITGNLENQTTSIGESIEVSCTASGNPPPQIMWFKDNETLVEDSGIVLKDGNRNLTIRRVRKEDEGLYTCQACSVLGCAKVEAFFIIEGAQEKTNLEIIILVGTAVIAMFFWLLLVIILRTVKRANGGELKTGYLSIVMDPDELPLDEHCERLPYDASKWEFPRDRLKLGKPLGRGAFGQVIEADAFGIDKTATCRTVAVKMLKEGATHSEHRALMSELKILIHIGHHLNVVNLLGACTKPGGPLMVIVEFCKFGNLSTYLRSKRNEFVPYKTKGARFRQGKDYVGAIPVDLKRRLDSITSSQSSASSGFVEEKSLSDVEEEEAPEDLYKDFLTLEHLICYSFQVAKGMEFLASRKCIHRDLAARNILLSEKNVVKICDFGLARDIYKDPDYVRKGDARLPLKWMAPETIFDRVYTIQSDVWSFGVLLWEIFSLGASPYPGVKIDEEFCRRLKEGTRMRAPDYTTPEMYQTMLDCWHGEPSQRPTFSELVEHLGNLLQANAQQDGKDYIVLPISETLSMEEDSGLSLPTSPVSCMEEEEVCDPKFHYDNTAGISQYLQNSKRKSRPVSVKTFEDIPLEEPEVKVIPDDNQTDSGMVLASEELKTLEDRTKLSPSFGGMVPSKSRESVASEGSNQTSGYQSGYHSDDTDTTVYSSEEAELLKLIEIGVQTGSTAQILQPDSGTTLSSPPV
Method: as §1, §2, §3, §4, §5

Row | Structure (SMILES) | IC50 (Syk) [µM] | IC50 (ZAP-70) [µM] | IC50 (KDR) [µM]
1 | Cc1cccc(Nc2nc3c(-c4ccccc4)nccn3n2)c1 [Example C1, (8-Phenyl-[1,2,4]triazolo[1,5-a]pyrazin-2-yl)-m-tolyl-amine] | 0.3 to 3 | 3 to 50 | < 0.3
2 | CN(C)CCCNc1nccn2nc(Nc3ccccc3)nc12 [Example C50, N^8-(3-Dimethylamino-propyl)-N^2-phenyl-[1,2,4]triazolo[1,5-a]pyrazine-2,8-diamine] | 3 to 50 | 3 to 50 | 3 to 50
3 | COCCCNc1nccn2nc(Nc3cccc(C(F)(F)F)c3)nc12 [Example C44, N^8-(3-Methoxy-propyl)-N^2-(3-trifluoromethyl-phenyl)-[1,2,4]triazolo[1,5-a]pyrazine-2,8-diamine] | 3 to 50 | 3 to 50 | –
4 | COc1cc(OC)cc(-c2nccn3nc(Nc4ccccc4)nc23)c1 [Example C18, [8-(3,5-Dimethoxy-phenyl)-[1,2,4]triazolo[1,5-a]pyrazin-2-yl]-phenyl-amine] | < 0.3 | 3 to 50 | –
5 | CN1CCN(CCCNc2nccn3nc(Nc4ccccc4)nc23)CC1 [Example C52, N^8-[3-(4-Methyl-piperazin-1-yl)-propyl]-N^2-phenyl-[1,2,4]triazolo[1,5-a]pyrazine-2,8-diamine] | – | 3 to 50 | 3 to 50
6 | COc1cc(OC)cc(-c2nccn3nc(Nc4ccc(Sc5nccn5C)c(Cl)c4)nc23)c1 [Example C25, [3-Chloro-4-(1-methyl-1H-imidazol-2-ylsulfanyl)-phenyl]-[8-(3,5-dimethoxy-phenyl)-[1,2,4]triazolo[1,5-a]pyrazin-2-yl]-amine] | 3 to 50 | 3 to 50 | 3 to 50
7 | Cc1cccc(Nc2nc3c(-c4cccnc4)nccn3n2)c1 [Example C21, (8-Pyridin-3-yl-[1,2,4]triazolo[1,5-a]pyrazin-2-yl)-m-tolyl-amine] | 0.3 to 3 | 3 to 50 | 0.3 to 3
8 | COc1cc(OC)cc(-c2nccn3nc(Nc4ccc5cnn(Cc6ccccc6)c5c4)nc23)c1 [Example C26, (1-Benzyl-1H-indazol-6-yl)-[8-(3,5-dimethoxy-phenyl)-[1,2,4]triazolo[1,5-a]pyrazin-2-yl]-amine] | 0.3 to 3 | 0.3 to 3 | –
9 | Clc1nccn2nc(Nc3ccccc3)nc12 [Example B5, 8-Chloro-[1,2,4]triazolo[1,5-a]pyrazin-2-yl-phenyl-amine] | 3 to 50 | 3 to 50 | –
10 | NCCNc1nccn2nc(Nc3cccc(C(F)(F)F)c3)nc12 [Example C41, N^8-(2-Amino-ethyl)-N^2-(3-trifluoromethyl-phenyl)-[1,2,4]triazolo[1,5-a]pyrazine-2,8-diamine] | 3 to 50 | 3 to 50 | 3 to 50
11 | Cn1ccnc1Sc1ccc(Nc2nc3c(Cl)nccn3n2)cc1Cl [Example B6, [3-Chloro-4-(1-methyl-1H-imidazol-2-ylsulfanyl)-phenyl]-(8-chloro-[1,2,4]triazolo[1,5-a]pyrazin-2-yl)-amine] | 3 to 50 | 3 to 50 | –
12 | c1ccc(Cn2ncc3ccc(Nc4nc5c(-c6cccnc6)nccn5n4)cc32)cc1 [Example C27, (1-Benzyl-1H-indazol-6-yl)-(8-pyridin-3-yl-[1,2,4]triazolo[1,5-a]pyrazin-2-yl)-amine] | 0.3 to 3 | 3 to 50 | –
13 | CN1CCN(CCCNc2nccn3nc(Nc4cccc(C(F)(F)F)c4)nc23)CC1 [Example C43, N^843-(4-Methyl-piperazin-1-yl)-propyq-N^2-(3-trifluoromethyl-phenyl)-[1,2,4]triazolo[1,5-a]pyrazine-2,8-diamine] | – | 3 to 50 | 3 to 50
14 | c1ccc(Nc2nc3c(NCCCN4CCOCC4)nccn3n2)cc1 [Example C51, N^8-(3-Morpholin-4-yl-propyl)-N^2-phenyl-[1,2,4]triazolo[1,5-a]pyrazine-2,8-diamine] | – | 0.3 to 3 | 3 to 50

The next lines start with the values.

Row | IC50 (Syk) [µM] | IC50 (ZAP-70) [µM] | IC50 (KDR) [µM] | Structure (SMILES)
15 | 3 to 50 | 3 to 50 | – | FC(F)(F)c1cccc(Nc2nccn3nc(Nc4ccccc4)nc23)c1 [Example C76, N^2-Phenyl-N^8-(3-trifluoromethyl-phenyl)-[1,2,4]triazolo[1,5-a]pyrazine-2,8-diamine]
16 | 3 to 50 | 3 to 50 | – | Cc1cc(C)cc(Nc2nccn3nc(Nc4ccc(Sc5nccn5C)c(Cl)c4)nc23)c1 [Example C77, N^2-[3-Chloro-4-(1-methyl-1H-imidazol-2-ylsulfanyl)-phenyl]-N^8-(3,5-dimethyl-phenyl)-[1,2,4]triazolo[1,5-a]pyrazine-2,8-diamine]
17 | 3 to 50 | 3 to 50 | – | O=C1Cc2cc(Nc3nc4c(-c5cnc6ccccc6c5)nccn4n3)ccc2N1 [Example C263, 5-(8-Quinolin-3-yl-[1,2,4]triazolo[1,5-a]pyrazin-2-ylamino)-1,3-dihydro-indol-2-one]
18 | 3 to 50 | 3 to 50 | – | COc1cc(Nc2nccn3nc(Nc4ccc(Sc5nccn5C)c(Cl)c4)nc23)cc(OC)c1 [Example C78, N^2-[3-Chloro-4-(1-methyl-1H-imidazol-2-ylsulfanyl)-phenyl]-N^8-(3,5-dimethoxy-phenyl)-[1,2,4]triazolo[1,5-a]pyrazine-2,8-diamine]
19 | 3 to 50 | 0.3 to 3 | – | Cc1cccc(Nc2nccn3nc(Nc4ccc(Sc5nccn5C)c(Cl)c4)nc23)c1 [Example C79, N^2-[3-Chloro-4-(1-methyl-1H-imidazol-2-ylsulfanyl)-phenyl]-N^8-m-tolyl-[1,2,4]triazolo[1,5-a]pyrazine-2,8-diamine]
20 | – | 3 to 50 | – | FC(F)(F)c1cccc(Nc2nc3c(Nc4ccccc4)nccn3n2)c1 [Example C88, N^8-Phenyl-N^2-(3-trifluoromethyl-phenyl)-[1,2,4]triazolo[1,5-a]pyrazine-2,8-diamine]
21 | 3 to 50 | 3 to 50 | – | Cc1cc(C)cc(Nc2nccn3nc(Nc4ccc5cnn(Cc6ccccc6)c5c4)nc23)c1 [Example C81, N^2-(1-Benzyl-1H-indazol-6-yl)-N^8-(3,5-dimethyl-phenyl)-[1,2,4]triazolo[1,5-a]pyrazine-2,8-diamine]
22 | – | 3 to 50 | – | Cc1cc(C)cc(Nc2nc3c(Nc4ccc5c(n4)NC(=O)C(C)(C)O5)nccn3n2)c1 [Example C60, 6-[2-(3,5-Dimethyl-phenylamino)-[1,2,4]triazolo[1,5-a]pyrazin-8-ylamino]-2,2-dimethyl-4H-pyrido[3,2-b][1,4]oxazin-3-one]
23 | – | 3 to 50 | – | COc1cc(Nc2nccn3nc(Nc4cccc(C(F)(F)F)c4)nc23)cc(OC)c1 [Example C87, N^8-(3,5-Dimethoxy-phenyl)-N^2-(3-trifluoromethyl-phenyl)-[1,2,4]triazolo[1,5-a]pyrazine-2,8-diamine]
24 | 3 to 50 | 0.3 to 3 | – | Cn1ccnc1Sc1ccc(Nc2nc3c(Nc4ccccc4)nccn3n2)cc1Cl [Example C80, N^2-[3-Chloro-4-(1-methyl-1H-imidazol-2-ylsulfanyl)-phenyl]-N^8-phenyl-[1,2,4]triazolo[1,5-a]pyrazine-2,8-diamine]
25 | – | 3 to 50 | – | COc1cc(Nc2nccn3nc(Nc4ccc5cnn(Cc6ccccc6)c5c4)nc23)cc(OC)c1 [Example C82, N^2-(1-Benzyl-1H-indazol-6-yl)-N^8-(3,5-dimethoxy-phenyl)-[1,2,4]triazolo[1,5-a]pyrazine-2,8-diamine]
